Non-standard residues stand in square brackets, D forms with d. No end group written: not given here. *: point of attachment. FITC = O=C1OC2(c3ccc(O)cc3Oc3cc(O)ccc32)c2ccc(NC(=S)*)cc21; pY = N[C@@H](Cc1ccc(OP(=O)(O)O)cc1)C(=O)O
Tested on: SLP76: ITK signaling
Experiment: Western blot of signaling proteins in mouse T cells stimulated with anti-CD3 and anti-CD28
Format: cell-based
Description: Western blotting: For protein analysis, T cells were either nonstimulated, or stimulated with anti-CD3 and anti-CD28 for 24 hours overnight, and were lysed with freshly prepared lysis buffer (RIPA Buffer (Fisher Scientific cat #PI89900)+cOmplete Protease Inhibitor Cocktail (Sigma-Aldrich; cat #11697498001)) and centrifuged for 10 minutes at 14000 rpm at 4° C. Protein aliquots of 70 μg of protein were loaded on a 12-18% denaturing polyacrylamide gel and transferred to nitrocellulose membranes for immunoblot analysis using antibodies specific to proteins of interest.
To ensure that the peptide easily enters cells and that its cellular localization can be monitored, a C-terminal TAT peptide (GRKKRRQRRRPQ) (SEQ ID NO:3) and an N-terminal fluorescent FITC dye were incorporated, respectively, and named it SLP76pTYR peptide ([…]). SLP76pTYR peptide (FITC Dye ^132NEEEEAPVEDDADpYEPPPSNDEEA^155-TAT) (SEQ ID NO:5) and non-specific control peptide (FITC Dye-[…]-TAT) (SEQ ID NO:6) were synthesized by Genscript Inc (Piscataway, NJ). These peptides were initially dissolved in 3% ammonia water to a final concentration of 10 mg/mL and then further diluted into PBS to a final concentration of 0.1 mg/mL. Fresh splenocytes were isolated from WT mice, and T cells were generated from splenocytes as previously described (Baker et al., 2001). Briefly, T cells were isolated from splenocytes using MACS beads (Miltenyi Biotec), then cultured in complete RPMI media (3×10^6 cells/mL) and plated on anti-CD3 ([…]; Biolegend; cat #100202) and anti-CD28 ([…]; Biolegend; cat #102116) antibody-coated tissue culture plates until otherwise specified. T cells were incubated with SLP76pTYR, control peptide or vehicle alone at different concentrations ranging from 100 ng/ml to 1 mg/ml in the presence of 4 mg/ml of protamine sulfate. […] Within 60 minutes, it was observed that peptides were inside the cells. Cells were cultured for 5 minutes prior to investigating signaling changes. Cells were examined for the presence of FITC by microscopy using a Leica DMi8 microscope equipped with an infinity total internal reflection fluorescence (TIRF) and DIC modules, a Lumencor SOLA SE II light box, a 150 mW 488 (GFP) laser and filter cube, a 100x/1.47 NA objective, and an Andor iXon Life 897 EMCCD camera. FITC expression was confirmed by flow cytometry as well. Cells were lysed and used in Western blots.
ITK deficiency is known to enhance the development of regulatory T cells (Tregs) (Elmore et al., 2020, Owen et al., 2019) so the peptide inhibitor was tested to determine whether inhibition of the ITK: SLP76Y145 interactions using SLP76pTYR would induce Tregs. First, the frequency of Tregs was examined by expression of CD4^+ and FoxP3^+ (FIG. 18A). Next, total mouse T cells were stimulated with anti-CD3 (Sugie et al., 2004) in the presence of either SLP76pTYR, nonspecific peptide, or vehicle alone for 5 to 24 hours, and cells were harvested and examined for the presence of Tregs (CD4^+CD25^+FoxP3^+). […] Next, the effects of SLP76pTYR peptide on human PBMC samples from healthy human patients was investigated. T cells from these patients were stimulated with anti-CD3 (OKT3) (Karimi et al., 2005) for 5 minutes in the presence of SLP76pTYR or vehicle alone. […] No differences in stimulated or unstimulated total human AKT (FIG. 18E and FIG. 28H) was observed, providing a showing that the SLP76pTYR peptide has an impact on signaling pathways downstream of SLP76 in both mouse and human T cells. […] Next, the ability of SLP76pTYR peptide to affect the production of proinflammatory cytokines in human PBMCs was investigated. T cells from healthy human were stimulated with anti-CD3 (OKT3) and anti-CD28 in the presence of SLP76pTYR or vehicle alone, along with Brefeldin A. T cells incubated with SLP76pTYR or vehicle alone were also examined in the presence of PMA+lonomycin and Brefeldin A for 6 hours. […]

[1] = anti-CD3 and anti-CD28 for 5 minutes, vs vehicle alone

FITC Dye ^132NEEEEAPVEDDADpYEPPPSNDEEA^155-TAT ({FITC}-NEEEEAPVEDDAD[pY]EPPPSNDEEAGRKKRRQRRRPQ) [SLP76pTYR]
off-target effects against other kinases (PI3K and AKT, mouse and human T cells (FIG. 28A-H)): minimal off-target effects against other kinases, including PI3K and AKT
ITK phosphorylation, stimulated [1]: reduction in ITK phosphorylation
PLCγ-1 phosphorylation, stimulated [1]: a reduction in stimulated phosphorylation PLCγ-1 was observed
ITK phosphorylation, non-stimulated (non-stimulated cells, vs vehicle alone): A reduction in non-stimulated phosphorylation ITK was not observed
phosphorylation of AKT (stimulated and non-stimulated, also total AKT): No differences in the phosphorylation of PI3K or AKT was observed
phosphorylation of PI3K (stimulated and non-stimulated, also total PI3K): No differences in the phosphorylation of PI3K or AKT was observed
non-stimulated phospho-PLCγ-1 and stimulated or non-stimulated PLCγ-1 (vs vehicle alone): no reduction with non-stimulated phospho-PLCγ-1or either stimulated or non-stimulated PLCγ-1 was observed
total ITK, stimulated or non-stimulated (vs vehicle alone): nor was any reduction for non-stimulated total ITK or stimulated total ITK observed
